According to US20260026499A1 (priority 2022, published 2026):
Converted amounts (≈) assume the structure as drawn.

Test system: tebuconazole-resistant Fusarium graminearum (TR)
Experiment: microbe, parasite or virus in culture
Type: cell-based
Conditions: for EC50: Fusarium graminearum, 72 h; for ATI: ZJS178 as standard reagent, TR strain

Question: Which EC50 does the source give for `CCOC(=O)/C(C#N)=C(\N)c1ccc(N(C)CC)cc1` [ZJS178 (A), ethyl 2-cyano-3-amino-3-[4-(N-ethyl-N-methylamino)phenyl]acrylate] here?
Answer: 0.0356 µg/mL (≈ 0.13 µM)

Question: What about the ATI of the same compound?
Answer: 100.00

Question: How did the EC50 turn out when `CC(C)(C)C(O)(CCc1ccc(Cl)cc1)Cn1cncn1` (racemic) [Tebuconazole (B), (RS)-1-p-chlorophenyl-4,4-dimethyl-3-(1H-1,2,4-triazol-1-ylmethyl)pentan-3-ol, reference compound] was run?
Answer: 1.52 µg/mL (≈ 4.95 µM)

Question: And the ATI?
Answer: 2.34
